Data set [1] can be described thus: Encapsulation of active ingredients in the particles. Format: physicochemical. How it is done:
The protocol adopted for encapsulating the hydrophilic active ingredients is to dissolve the active ingredient in water at an initial concentration as indicated in Table 5 and then adding the amphiphilic polysaccharide and the α-cyclodextrin. The mixture is magnetically stirred for 3 days. After this mixing for 3 days, the concentration of the active ingredient that has not been encapsulated is determined in the supernatant of the preparation. The supernatant is separated either by simple sedimentation or by centrifugation of the microparticles, or after ultracentrifugation in the case of the nanoparticles.
The protocol adopted for encapsulating the hydrophobic active ingredients is to dissolve the active ingredient in an ethanol/water mixture at an initial concentration as shown in Table 26 and then add the amphiphilic polysaccharide and the α-cyclodextrin. The mixture is maintained under magnetic stirring for 3 days. After mixing for 3 days, the concentration of the active ingredient that has not been encapsulated is determined in the supernatant of the preparation. The supernatant is separated either by simple sedimentation or by centrifugation of the microparticles, or after ultracentrifugation in the case of the nanoparticles.

The subject of data set [2] is bacterial adhesion. Particulars: heparin coating of abiotic surfaces; cited from earlier work.
In data set [3] the test system is Candida albicans. Particulars: heparin coating of abiotic surfaces; cited from earlier work.
Setting [4] is: polysaccharide MC6, initial concentration 21.7 g/L, water.
Setting [5] is: polysaccharide MC8, initial concentration 21.7 g/L, water.
Where [6] appears, read: polysaccharide MC9, initial concentration 2.33 g/L, water.
Setting [7] is: polysaccharide MC6, ethanol/water 40/60 % v/v, initial concentration 3.5 g/L.
[8] abbreviates: polysaccharide MC11, initial concentration 2.34 g/L, water.
The mark [9] stands for this setting: polysaccharide MC8, initial concentration 194 g/L, water.
Where [10] appears, read: polysaccharide MC9, initial concentration 2.31 g/L, water.

This is an account of results in patent US10412960B2, “Microparticles and nanoparticles made up of hydrophobized polysaccharides and an alpha-cyclodextrine” (priority 2012, dated 2019).

As for `Cn1c(=O)c2c(ncn2C)n(C)c1=O` [Caffeine], the Concentration encapsulated in data set [1] (setting [4]) was found to be 3.59 g/L; in data set [1] (setting [5]), 3.15 g/L; in data set [1] (setting [6]), 0.51 g/L. For the same compound, the values for the Encapsulation yield in data set [1] (setting [4]), in data set [1] (setting [5]) and in data set [1] (setting [6]) were 16.55%, 17.53% and 22.23%, respectively.
Take `CC(C(=O)O)c1cccc(C(=O)c2ccccc2)c1` (stereo not shown) [Ketoprofen]: in data set [1] (setting [7]), the Encapsulated concentration stood at 1.09 g/L and the Encapsulation yield stood at 31.12%.
In data set [1] (setting [8]), `CC(=O)Nc1ccc(O)cc1` [Paracetamol] showed a Concentration encapsulated of 0.78 g/L and an Encapsulation yield of 33.33%.
As for `Cc1ncc(CO)c(CO)c1O.Cl` [Vitamin B6], the Concentration encapsulated in data set [1] (setting [9]) came out at 104.65 g/L; in data set [1] (setting [10]), 1.52 g/L. The results for the Encapsulation yield in data set [1] (setting [9]) and in data set [1] (setting [10]) were 53.94% and 65.82%, respectively.
On to Heparin, for which, in data set [2], the “reduction of bacterial adhesion” value is listed as 90%. The “reduction of adhesion of Candida albicans” value in data set [3] is listed as “approximately 50%”.
